Assay results: US11813249B2, “Combination therapy for treatment of restenosis” (Mercator MedSystems, Inc., priority 2017, dated 2023)
Entries after “also recorded” stand apart in the source; their conditions may differ. Blank lines part the entries; values can stand above or below the compound they belong to.

Tests used:
[1] = tested on: human aortic VSMCs; conditions: 12 hours; for LDH release (necrosis and cytolysis): increasing drug concentrations, with or without 50 nM dexamethasone, FIG. 18A-C; for necrotic cytotoxicity (LDH): single drug or 500 nM TEM or PAC with DEX 10, 50, 500 nM, FIG. 19C
Experimental: At harvest, plates were centrifuged at 800 rpm in a clinical centrifuge, and supernatant was carefully removed and assayed for lysed cells by measuring the LDH released into the culture media by ELISA, according to manufacturer instructions. Absorbance readings were taken using a microtiter plate reader (Tecan). […] Data in FIG. 18A represent the LDH release in the presence of increasing concentrations of sirolimus or sirolimus+50 nM dexamethasone. […] Data represent the average of 9 replicate wells per condition and error bars represent the standard deviation of the 9 replicates.
Treated cells were then incubated for 12 hours. At harvest, plates were centrifuged at 800 rpm in a clinical centrifuge, and supernatant was carefully removed and assayed for LDH by ELISA according to manufacturer instructions. Absorbance readings were taken using a microtiter plate reader (Tecan). Data represent the average absorbance readings. Error bars represent the standard deviation amongst replicates.

[2] = tested on: human aortic VSMCs; assay: Apoptosis by Caspase 3 ELISA in drug-treated VSMCs; conditions: 12 hours; for apoptosis (Caspase 3 activation): increasing drug concentrations, with or without 50 nM dexamethasone, FIG. 17A-C
Experimental: At harvest, cells were gently lysed and a Caspase 3 ELISA was performed (Cell Signaling Technologies, Cat #7190). Absorbance readings were taken using a microtiter plate reader (Tecan). […] Data represent the average of 9 replicate wells per condition and error bars represent the standard deviation of the 9 replicates. Baseline levels of VSMC apoptosis were obtained using vehicle controls and values were set to zero. The percent change in apoptosis in the presence of drug was determined from baseline (FIG. 17A-C).
Cells were then incubated for 12 hours. At harvest, plates were centrifuged at 800 rpm in a clinical centrifuge, and supernatant was carefully removed. Cells were then fixed and permeabilized and assayed for cytoplasmic caspase 3 levels by ELISA, according to manufacturer instructions (Cell Signaling Technologies). Absorbance readings were taken using a microtiter plate reader (Tecan). Data represent the average absorbance readings. Error bars represent the standard deviation amongst replicates.

[3] = in vivo
Description: Overview: The purpose of this study was to evaluate the safety and pharmokinetic profile of Torisel® and dexamethasone when delivered in an exaggerated dose to peripheral vasculature in a porcine model of balloon overstretch artery stenosis.
Methods: Four juvenile porcine subjects were used on this study to assess tissue safety and pharmacokinetic profile. The animals received femoral artery injury induced via oversizing a balloon (˜20-30% overstretch). Three animals received subsequent treatment with the Bullfrog® catheter of Torisel® (2 mg/mL) with dexamethasone (6 mg/mL) and contrast medium (20%) into the adventitia and perivascular tissue around the peripheral arteries. The fourth animal received subsequent treatment with the Bullfrog® catheter of saline and contrast medium (20%) into the adventitia and perivascular tissue around the peripheral arteries. Blood samples were taken at baseline, and post-implant 20 minutes, 1 hour, 4 hours, 24 hours, 3 days, 7 days, and just prior to termination for pharmacokinetic assessment. […] The other three animals were survived for 14 days. At day 14, blood was collected, animals were euthanized and a necropsy was performed.

[4] = tested on: human aortic VSMCs; assay: BrdU ELISA proliferation of PDGF-stimulated VSMCs; assay type: cell-based; conditions: Example 11; 1 nM to 100 μM for 12 hours; PDGF 10 ng/mL; compared to vehicle control and actinomycin D; FIG. 20
Experimental: (§1) A study was performed to assess the ability of a range of drug or drug combinations to induce cytotoxicity in PDGF-stimulated aortic smooth muscle and endothelial cells in vitro. […] Utilizing protocols for EC and VSMC stimulation mediated by the growth factor, PDGF, cells were incubated in drug at concentration ranges from 0, 1, 10, 100 nM, 1, 10, 100 μM for 12 hours prior to assessment for cellular activation and cytotoxicity. Prior to harvest, BrdU was added to each well for 6 hours for DNA incorporation. […] Data represent the average absorbance readings. […] Cellular activation was monitored by metabolic activity and cellular proliferation. Metabolic activity was measured using the MTT assay to monitor enzyme-dependent metabolite production while proliferation was measured using 5-bromo-2′-deoxyuridine (BrdU) ELISA to monitor DNA synthesis.

[5] = tested on: IL6 cytokine production of human aortic VSMCs; assay: IL6 ELISA of supernatant of PDGF-stimulated VSMCs; assay type: cell-based; conditions: for PDGF-induced IL6 levels: 48 h, single drug 0, 10, 50, 500 nM, or 500 nM TEM or PAC with DEX 10, 50, 500 nM, FIG. 19D
Experimental: (§2) Following a 48 hour incubation in the presence of drug and stimulant (PDGF), 50 uL of supernatant from each well was collected and ELISAs were performed to measure IL6 levels. Pro-inflammatory cytokine expression was examined under these conditions by measuring IL6 levels in cell supernatant after 48 h by enzyme-linked immunoassay (ELISA; Peprotech #900-T16, #900-T25).

[6] = tested on: human aortic VSMCs; assay: MTT metabolic activity / proliferation of PDGF-stimulated VSMCs; assay type: cell-based; conditions: PDGF 10 ng/mL; for inhibitory activity in the MTT assay: Example 11, 1 nM to 100 μM for 12 hours; for inhibition of metabolic activity and proliferation (MTT assay): drug 0, 1, 10, 100, 500 nM, with or without 50 nM dexamethasone, FIGS. 14A-C
Experimental: Drug-specific effects on cellular metabolic activity, pro-inflammatory cytokine production and cytotoxicity were examined. As a cytotoxic control for disruption of metabolic activity, we used actinomycin D (100 ng/mL or […]). As a negative control, vehicle (5% (v/v) sterile DMSO in saline) was used. Following an 8 hour incubation in the presence of drug and stim (PDGF), MTT substrate was added and incubated for an additional 4 hrs prior to measurement. […] Data represent the average absorbance readings.
After 8 h incubation, MTT substrate was added and incubated for an additional 4 hrs prior to measurement (T=12 hours). […] Data represent the average absorbance readings. […] FIG. 19A presents the percent of inhibition that was identified in the presence of single or combination drugs. Low doses of all drugs, administered individually, had minimal inhibitory properties, as compared to high dose of each drug.
as §1

[7] = tested on: TNFα production of human aortic VSMCs; assay: TNFα ELISA of supernatant of PDGF-stimulated VSMCs; assay type: cell-based; conditions: for PDGF-induced TNFα levels: 48 h, single drug 0, 10, 50, 500 nM, or 500 nM TEM or PAC with DEX 10, 50, 500 nM, FIG. 19E
Experimental: as §2, with “TNFα” for “IL6”

[8] = Example 13 porcine study: blood and tissue pharmacokinetics
Experimental: (§3) Methods. Twelve animals were evaluated for tissue safety and pharmacokinetic blood and tissue profiles. The animals received vessel injury induced via oversizing a balloon at ˜20-30% overstretch, then receiving subsequent Bullfrog® catheter delivery of 4 mg/mL Torisel® or saline placebo control into the adventitia and perivascular tissue around the coronary and femoral arteries. Blood samples for pharmacokinetic analysis were taken at 5 minutes, 30 minutes, 1 hour, 24 hours, 72 hours, 7 Days, 28 Days, and termination. Animals were terminated at 90 days. Gross examination of all treated tissues and surrounding structures was performed. […] Histological analysis was performed on all other collected arterial tissues.

[9] = dosage of 4 mg/mL temsirolimus
Experimental: as §3

[10] = tested on: external iliac arteries; assay: Example 15 WHHL rabbit model of balloon overstretch artery stenosis: histopathology; assay type: in vivo, Watanabe heritable hyperlipidemic (WHHL) rabbit; conditions: relative to dexamethasone alone or vehicle group
Experimental: Overview. A rabbit study was performed to evaluate the tissue effect of Torisel® (Tem) and dexamethasone (Dex) when delivered as combined or alone to peripheral vasculature in a Watanabe heritable hyperlipidemic (WHHL) rabbit model of balloon overstretch artery stenosis. Each animal was subject to balloon angioplasty and treatment in each of the two (2) external iliac arteries. Four subjects were assigned to each of three groups: Torisel®, dexamethasone, or combination. Three subjects were assigned to each of two groups: control (vehicle delivery) or balloon only. Two New Zealand white rabbits were assigned to treatment with balloon only in one iliac and were naïve to any treatment in the other iliac.
Methods. Twenty animals were evaluated for tissue effect of peri-vascular injection of test and control articles. […] The animals received vessel injury induced via oversizing a balloon (˜20-30% overstretch). Animals were divided into the six groups with varying balloon injury targets and various combinations of test and control articles. The test and control articles were injected into the peri-vascular tissue using the Bullfrog® catheter. Animals were recovered and survived for ˜28 days. At ˜28 days, animals were sacrificed, a gross pathology performed and tissue harvested for histopathology analysis.

[11] = design: species or system swine; conditions: pig, in vivo
Experimental: The study design included a total of eleven (11) animals; 8 of which received angioplasty overstretch followed by single dose of test article in bilateral superficial femoral arteries administered for a total in-life phase of 1 hour (n=2), 3 days (n=2), 7 days (n=2) and 28 days (n=2) and three additional animals that served as control by undergoing angioplasty overstretch followed by infusion of saline and surviving for 3 days (n=1), 7 days (n=1) and 28 days (n=1). A carotid artery access was utilized for all interventional procedures. […] Animals survived to 1 hour (n=2), 3 days (n=2), 7 days (n=2) and 28 days (n=2), for detailed histopathology and safety evaluation. Following survival to the designated endpoint, animals underwent blood collection, then were euthanized and necropsied followed by histological examination.
A prospective study of a single dose (357 μg in 1.5 ml) of adventitially delivered study drug (Torisel®) was conducted. All doses contained 50% contrast medium for distribution tracking. Each pig received bilateral injections in the mid femoral region. 2 pigs each were sacrificed at 1 hour, 3 days, 7 days and 28 days, for a total of 8 pigs. […] 3 pigs were used as control in which treatment sites were subjected to overstretch injury followed by infusion of saline via the Mercator Bullfrog® catheter and sacrificed at 3 days, 7 days or 28 days (1 pig at each time point). […]

Structure (SMILES): C[C@@H]1C[C@H]2[C@@H]3CCC4=CC(=O)C=C[C@]4(C)[C@@]3(F)[C@@H](O)C[C@]2(C)[C@@]1(O)C(=O)CO [dexamethasone]
- LDH release (necrosis and cytolysis) [1]: suppressed LDH release compared to vehicle
- necrotic cytotoxicity (LDH) [1]: not observed
- apoptosis (Caspase 3 activation) [2]: did not induce significant apoptosis
- dexamethasone levels in plasma at the 24-hour time point and after ([3]; pig, in vivo): below LLOQ
- tissue levels at 14 days ([3]; pig, in vivo): below LLOQ

Structure (SMILES): CC(=O)O[C@H]1C(=O)[C@@]2(C)[C@H]([C@H](OC(=O)c3ccccc3)[C@]3(O)C[C@H](OC(=O)[C@H](O)[C@@H](NC(=O)c4ccccc4)c4ccccc4)C(C)=C1C3(C)C)[C@]1(OC(C)=O)CO[C@@H]1C[C@@H]2O [paclitaxel]
- LDH release (necrosis and cytolysis) [1]: dose-dependent relationship
- necrotic cytotoxicity (LDH) [1]: demonstrated necrotic cytotoxicity
- inhibition of BrdU incorporation (cellular proliferation) [4]: approached the degree of inhibition of actinomycin D
- PDGF-induced IL6 levels [5]: dose-dependent upregulation
- IL6 production ([5]; 48 hour incubation, increasing drug concentrations, with or without 50 nM dexamethasone, FIGS. 16A-C): induced IL6 and TNFα production by SMCs at all doses tested; also recorded: no significant change in IL6 levels between 50 and 500 nM
- inhibitory activity in the MTT assay [6]: at higher concentrations had inhibitory activity
- inhibition of metabolic activity and proliferation (MTT assay) [6]: at higher concentrations had inhibitory activity
- average increase in apoptosis from vehicle baseline ([2]; Caspase 3 ELISA, vehicle baseline set to zero): ≤ 173%
- apoptosis (Caspase 3 activation) [2]: induced in a dose-dependent manner
- apoptosis (cytoplasmic caspase 3) compared to vehicle control ([2]; single drug or 500 nM TEM or PAC with DEX 10, 50, 500 nM, FIG. 19B): promote apoptosis (lack of inhibition)
- PDGF-induced TNFα levels [7]: dose-dependent upregulation
- TNFα production ([7]; 48 hour incubation, increasing drug concentrations, with or without 50 nM dexamethasone, FIGS. 15A-C): activated pro-inflammatory cytokine expression; also recorded: induced IL6 and TNFα production by SMCs at all doses tested; also recorded: increased steadily

- relation of observed blood concentrations to dose ([8]; 52 mg versus 5.2 mg Torisel): proportional to dose
- homogenized vascular tissue levels ([8]; termination at 90 days): all below LLOQ
- whole blood levels at 28 days and at termination ([8]; termination at 90 days): below LLOQ
Structure (SMILES): CO[C@H]1C[C@@H]2CC[C@@H](C)[C@@](O)(O2)C(=O)C(=O)N2CCCC[C@H]2C(=O)O[C@H]([C@H](C)C[C@@H]2CC[C@@H](O)[C@H](OC)C2)CC(=O)[C@H](C)/C=C(\C)[C@@H](O)[C@@H](OC)C(=O)[C@H](C)C[C@H](C)/C=C/C=C/C=C/1C [sirolimus]
- whole blood levels, time course ([8]; up to 52 mg or 5.2 mg Torisel, perivascular, coronary and peripheral arteries): peaked at early time points, declined over time to Day 7

Structure (SMILES): CO[C@H]1C[C@@H]2CC[C@@H](C)[C@@](O)(O2)C(=O)C(=O)N2CCCC[C@H]2C(=O)O[C@H]([C@H](C)C[C@@H]2CC[C@@H](OC(=O)C(C)(CO)CO)[C@H](OC)C2)CC(=O)[C@H](C)/C=C(\C)[C@@H](O)[C@@H](OC)C(=O)[C@H](C)C[C@H](C)/C=C/C=C/C=C/1C [temsirolimus]
- mineralization in tissues [9]: not previously seen
- relation of observed blood concentrations to dose ([8]; pig, in vivo): proportional to dose
- whole blood levels at 28 days and at termination ([8]; pig, in vivo): below LLOQ
- inhibition of BrdU incorporation (cellular proliferation) [4]: approached the degree of inhibition of actinomycin D
- % HHF-35 positive intimal/medial area (marker of vascular smooth muscle cell viability) [10]: smaller
- PDGF-induced IL6 levels [5]: dose-dependent reduction
- inhibitory activity in the MTT assay [6]: at higher concentrations had inhibitory activity
- inhibition of metabolic activity and proliferation (MTT assay) [6]: at higher concentrations had inhibitory activity
- time post-dosing up to which drug was measured in the local vascular tissue [11]: up to 28 days
- temsirolimus levels in the blood, time course ([3]; Torisel 2 mg/mL with dexamethasone 6 mg/mL, perivascular, peripheral arteries): peaked at early time points, declined over time to 7 days
- temsirolimus levels in the blood at termination ([3]; day 14): below the lower limit of quantitation (LLOQ)
- level in homogenized vascular tissue at term ([3]; day 14, one value per test animal): 97.5 ng/g
- level in vascular tissue at term, molar equivalent ([3]; day 14, printed as equivalent): 0.0947 µM
- concentration at 14 days ([3]; pig, in vivo, level in homogenized vascular tissue at term, day 14, one value per test animal): 50.3 ng/g
- concentration at 14 days ([3]; pig, in vivo, level in vascular tissue at term, molar equivalent, day 14, printed as equivalent): 0.0488 µM
- PDGF-induced TNFα levels [7]: dose-dependent reduction
